From US20050234046A1 (Kalypsys, Inc., priority 2004, published 2005)

Columns and labels:
Assay in all cases: Transient transfection (transactivation) assay in CV-1 cells, GAL4-PPAR chimera, luciferase reporter
Type in all cases: cell-based
PPAR alpha = target: T1, PPAR alpha (Homo sapiens, UniProt Q07869)
T1 construct: expressed in transfected cells; host or cells: CV-1 cells
T1 sequence (Q07869 239-466 limits assumed): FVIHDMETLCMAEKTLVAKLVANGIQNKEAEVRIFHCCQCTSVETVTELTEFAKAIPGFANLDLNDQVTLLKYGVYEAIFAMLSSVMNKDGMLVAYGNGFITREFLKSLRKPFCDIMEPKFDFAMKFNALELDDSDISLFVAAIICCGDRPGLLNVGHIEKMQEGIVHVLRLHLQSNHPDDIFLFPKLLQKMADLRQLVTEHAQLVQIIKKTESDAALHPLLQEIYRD
Description: Compounds may be screened for functional potency in transient transfection assays in CV-1 cells or other cell types for their ability to activate the PPAR subtypes (transactivation assay). A previously established chimeric receptor system was utilized to allow comparison of the relative transcriptional activity of the receptor subtypes on the same synthetic response element and to prevent endogenous receptor activation from complicating the interpretation of results. See, for example; Lehmann, J. M.; Moore, L. B.; Smith-Oliver, T. A; Wilkinson, W. O.; Willson, T. M.; Kliewer, S. A., An antidiabetic thiazolidinedione is a high affinity ligand for peroxisome proliferatur-activated receptor γ (PPARγ), J. Biol. Chem., 1995, 270, 12953-6. The ligand binding domains for murine and human PPAR-alpha, PPAR-gamma, and PPAR-delta are each fused to the yeast transcription factor GAL4 DNA binding domain. CV-1 cells were transiently transfected with expression vectors for the respective PPAR chimera along with a reporter construct containing four or five copies of the GAL4 DNA binding site driving expression of luciferase. After 8-16 h, the cells are replated into multi-well assay plates and the media is exchanged to phenol-red free DME medium supplemented with 5% delipidated calf serum. 4 hours after replating, cells were treated with either compounds or 1% DMSO for 20-24 hours. Luciferase activity was then assayed with Britelite (Perkin Elmer) following the manufacturer's protocol and measured with either the Perkin Elmer Viewlux or Molecular Devices Acquest Xsee, for example, Kliewer, S. A., et. al. Cell 1995, 83, 813-819). Rosiglitazone is used as a positive control in the hPPAR-γ assay. Wy-14643 and GW7647 is used as a positive control in the hPPAR-α assay. GW501516 is used as the positive control in the hPPAR-δ assay.
Compounds of Examples 1-233 were assayed to measure their biological activity with respect to their EC50 values and efficacy for modulating PPAR-alpha, PPAR-gamma, and PPAR-delta as set forth in Table 3.

PPAR delta = target: T2, PPAR delta (Homo sapiens, UniProt Q03181)
T2 construct: expressed in transfected cells; host or cells: CV-1 cells
T2 sequence (Q03181 211-439 limits assumed): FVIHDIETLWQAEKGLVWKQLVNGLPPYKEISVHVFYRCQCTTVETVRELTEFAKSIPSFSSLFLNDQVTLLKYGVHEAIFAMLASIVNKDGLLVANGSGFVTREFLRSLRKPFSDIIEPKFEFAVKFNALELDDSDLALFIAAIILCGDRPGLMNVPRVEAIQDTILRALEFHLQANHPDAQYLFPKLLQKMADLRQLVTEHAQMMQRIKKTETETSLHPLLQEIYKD

PPAR gamma = target: T3, PPAR gamma (Homo sapiens, UniProt P37231)
T3 construct: expressed in transfected cells; host or cells: CV-1 cells
T3 sequence (P37231 238-503 limits assumed): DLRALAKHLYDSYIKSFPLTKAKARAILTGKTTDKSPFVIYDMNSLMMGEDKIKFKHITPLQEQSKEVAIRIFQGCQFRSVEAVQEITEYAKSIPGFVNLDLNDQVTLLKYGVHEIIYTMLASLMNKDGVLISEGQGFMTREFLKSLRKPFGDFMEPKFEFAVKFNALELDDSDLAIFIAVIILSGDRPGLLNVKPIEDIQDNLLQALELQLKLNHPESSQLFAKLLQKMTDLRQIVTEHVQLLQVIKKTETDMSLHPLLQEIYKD

EC50 (PPAR alpha)	EC50 (PPAR delta)	EC50 (PPAR gamma)	PPAR gamma EC50 (PPAR gamma)	SMILES
> 100 µM	5 to 100 µM	> 100 µM		Cc1ccc(S(=O)(=O)N2[C@H](C)CN(c3nc4ccccc4o3)C[C@@H]2C)cc1CC(=O)O [Example 24, [5-(4-Benzooxazol-2-yl-2,6-dimethyl-piperazine-1-sulfonyl)-2-methyl-phenyl]-acetic acid]
> 100 µM	5 to 100 µM	> 100 µM		Cc1ccc(S(=O)(=O)N2CCCN(c3nc4ccccc4o3)CC2)cc1CC(=O)O [Example 26, [5-(4-Benzooxazol-2-yl-[1,4]diazepane-1-sulfonyl)-2-methyl-phenyl]-acetic acid]
> 100 µM	5 to 100 µM	5 to 100 µM		Cc1ccc(S(=O)(=O)N2CCCN(c3nc4ccccc4s3)CC2)cc1CC(=O)O [Example 27, [5-(4-Benzothiazol-2-yl-[1,4]diazepane-1-sulfonyl)-2-methyl-phenyl]-acetic acid]
> 100 µM	< 5 µM	> 100 µM		Cc1ccc(S(=O)(=O)N2CCN(c3ccc(C#N)cn3)CC2)cc1CC(=O)O [Example 28, {5-[4-(5-Cyano-pyridin-2-yl)-piperazine-1-sulfonyl]-2-methyl-phenyl}-acetic acid]
5 to 100 µM	< 5 µM	5 to 100 µM		CCc1ccc(N2CCN(S(=O)(=O)c3ccc(C)c(CC(=O)O)c3)CC2)cc1 [Example 30, {5-[4-(4-Ethyl-phenyl)-piperazine-1-sulfonyl]-2-methyl-phenyl}-acetic acid]
< 5 µM	< 5 µM		B/C	Cc1ccc(S(=O)(=O)N2CCN(c3ccc(C(F)(F)F)c(F)c3)CC2)cc1CC(=O)O [Example 34, {5-[4-(3-Fluoro-4-trifluoromethyl-phenyl)-piperazine-1-sulfonyl]-2-methyl-phenyl}-acetic acid]
> 100 µM	< 5 µM	> 100 µM		COC(=O)[C@@H]1CN(c2ccc(C(F)(F)F)cn2)CCN1S(=O)(=O)c1ccc(C)c(CC(=O)O)c1 [Example 37, (S)-1-(3-Carboxymethyl-4-methyl-benzenesulfonyl)-4-(S-trifluoromethyl-pyridin-2-yl)-piperazine-2-carboxylic acid methyl ester]
> 100 µM	< 5 µM	< 5 µM		Cc1ccc(S(=O)(=O)N2CCN(c3ccc(C(F)(F)F)cn3)CC2(C)C)cc1CC(=O)O [Example 39, {5-[2,2-Dimethyl-4-(5-trifluoromethyl-pyridin-2-yl)-piperazine-1-sulfonyl]-2-methyl-phenyl}-acetic acid]
> 100 µM	5 to 100 µM	> 100 µM		COC[C@@H]1CN(S(=O)(=O)c2ccc(C)c(CC(=O)O)c2)CCN1c1ccc(C(F)(F)F)cn1 [Example 40]
> 100 µM	< 5 µM	5 to 100 µM		COC(=O)[C@H]1CN(S(=O)(=O)c2ccc(C)c(CC(=O)O)c2)CCN1c1ccc(C(F)(F)F)cn1 [Example 41, (R)-4-(3-Carboxymethyl-4-methyl-benzenesulfonyl)- -(5-trifluoromethyl-pyridin-2-yl)-piperazine-2-carboxylic acid methyl ester]
> 100 µM	< 5 µM	5 to 100 µM		COC(=O)[C@@H]1CN(S(=O)(=O)c2ccc(C)c(CC(=O)O)c2)CCN1c1ccc(C(F)(F)F)cn1 [Example 42, (S)-4-(3-Carboxymethyl-4-methyl-benzenesulfonyl)-1-(5-trifluoromethyl-pyridin-2-yl)-piperazine-2-carboxylic acid methyl ester]
< 5 µM	< 5 µM	< 5 µM		Cc1ccc(S(=O)(=O)N2CCN(c3ncc(I)cn3)CC2)cc1CC(=O)O [Example 44, {5-[4-(5-Iodo-pyrimidin-2-yl)-piperazine-1-sulfonyl]-2-methyl-phenyl}-acetic acid]
> 100 µM	> 100 µM	5 to 100 µM		Cc1ccc(S(=O)(=O)N2CCC(c3nc(C(F)(F)F)cs3)CC2)cc1CC(=O)O [Example 46, {2-Methyl-5-[4-(4-trifluoromethyl-thiazol-2-yl)-piperidine-1-sulfonyl]-phenyl}-acetic acid]

The remaining lines, values behind:

SMILES	EC50 (PPAR alpha)	EC50 (PPAR delta)	EC50 (PPAR gamma)	PPAR gamma EC50 (PPAR gamma)
Cc1ccc(S(=O)(=O)N2CCN(c3ccc(C(F)(F)F)cn3)C(C)C2)cc1CC(=O)O (stereo not drawn) [Example 23, [2-Methyl-5-[3-methyl-4-(5-trifluoromethyl-pyridin-2-yl)-piperazine-1-sulfonyl]-phenyl}-acetic acid]	5 to 100 µM	< 5 µM	< 5 µM	
Cc1ccc(S(=O)(=O)N2[C@H](C)CN(c3nc4ccccc4s3)C[C@@H]2C)cc1CC(=O)O [Example 25, [5-(4-Benzothiazol-2-yl-2,6-dimethyl-piperazine-1-sulfonyl)-2-methyl-phenyl]-acetic acid]	> 100 µM	5 to 100 µM	> 100 µM	
COC(=O)[C@H]1CN(c2ccc(C(F)(F)F)cn2)CCN1S(=O)(=O)c1ccc(C)c(CC(=O)O)c1 [Example 29, (R)-1-(3-Carboxymethyl-4-methyl-benzenesulfonyl)-4-(5-trifluoromethyl-pyridin-2-yl)-piperazine-2-carboxylic acid methyl ester]	> 100 µM	< 5 µM	> 100 µM	
Cc1ccc(S(=O)(=O)N2CCN(c3ccc(C(C)C)cc3)CC2)cc1CC(=O)O [Example 31]	< 5 µM	< 5 µM	5 to 100 µM	
Cc1ccc(S(=O)(=O)N2CCN(c3ccc(C(C)(C)C)cc3)CC2)cc1CC(=O)O [Example 32, {5-[4-(4-tert-Butyl-phenyl)-piperazine-1-sulfonyl]-2-methyl-phenyl}-acetic acid]	< 5 µM	5 to 100 µM	5 to 100 µM	
Cc1ccc(S(=O)(=O)N2CCN(c3ccc(C(F)(F)F)cc3F)CC2)cc1CC(=O)O [Example 33]	< 5 µM	< 5 µM	< 5 µM	
Cc1ccc(S(=O)(=O)N2CCN(c3cc(C(F)(F)F)ccn3)CC2)cc1CC(=O)O [Example 35, {2-Methyl-5-[4-(4-trifluoromethyl-pyridin-2-yl)-piperazine-1-sulfonyl]-phenyl}-acetic acid]	5 to 100 µM	< 5 µM	5 to 100 µM	
Cc1ccc(S(=O)(=O)N2CCN(c3cccc(C(F)(F)F)n3)CC2)cc1CC(=O)O [Example 36, {2-Methyl-5-[4-(6-trifluoromethyl-pyridin-2-yl)-piperazine-1-sulfonyl]-phenyl}-acetic acid]	5 to 100 µM	< 5 µM	< 5 µM	
Cc1ccc(S(=O)(=O)N2CCN(c3ccc(C(F)(F)F)cn3)C(C)(C)C2)cc1CC(=O)O [Example 38, {5-[3,3-Dimethyl-4-(5-trifluoromethyl-pyridin-2-yl)-piperazine-1-sulfonyl]-2-methyl-phenyl}-acetic acid]	> 100 µM	< 5 µM	< 5 µM	
Cc1ccc(S(=O)(=O)N2CCC(c3nccs3)CC2)cc1CC(=O)O [Example 43, [2-Methyl-5-(4-thiazol-2-yl-piperidine-1-sulfonyl)-phenyl]-acetic acid]	> 100 µM	> 100 µM	> 100 µM	
Cc1ccc(S(=O)(=O)N2CC=C(c3ccc(C(F)(F)F)cc3)CC2)cc1CC(=O)O [Example 45, {2-Methyl-5-[4-(4-trifluoromethyl-phenyl)-3,6-dihydro-2H-pyridine-1-sulfonyl]-phenyl}-acetic acid]	5 to 100 µM	< 5 µM	5 to 100 µM	
